Biological target in one assay: not listed separately
In words: Induction of p53 in human HCT116 cells coexpressing pp53TA-luc assessed as inhibition of cell proliferation after 8 hrs by firefly/renilla luciferase reporter assay. (A reporter such as luciferase makes a cellular process visible.)
Sequence of Cellular tumor antigen p53 (P04637 whole entry): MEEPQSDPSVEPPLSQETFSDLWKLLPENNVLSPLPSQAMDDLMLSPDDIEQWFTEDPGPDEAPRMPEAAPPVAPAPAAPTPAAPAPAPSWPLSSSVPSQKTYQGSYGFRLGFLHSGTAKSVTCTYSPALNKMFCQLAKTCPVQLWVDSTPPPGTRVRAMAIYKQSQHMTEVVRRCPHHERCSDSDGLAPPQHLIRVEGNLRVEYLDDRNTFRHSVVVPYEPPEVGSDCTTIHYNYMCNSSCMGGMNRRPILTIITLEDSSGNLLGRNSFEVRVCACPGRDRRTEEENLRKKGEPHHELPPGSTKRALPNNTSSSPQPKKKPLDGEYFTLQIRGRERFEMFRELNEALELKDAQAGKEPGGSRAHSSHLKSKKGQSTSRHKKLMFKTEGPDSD
The IC50 is the concentration that gives 50% inhibition. As for `Cc1cc2c(cc1F)OC(c1ccc(Br)cc1)C1=C2N(C)c2ncnn2C1c1ccc(Br)cc1` (racemic) [(+/-)-syn-6,7-Bis(4-bromophenyl)-3-fluoro-2,12-dimethyl-7,12-dihydro-6H-chromeno[4,3-d][1,2,4]triazolo[1,5-a]pyrimidine], the IC50 was 11.4 µM.
Take `CN1C2=C(C(c3ccc(Cl)cc3)Oc3ccccc32)C(c2ccc(Cl)cc2)n2ncnc21` (racemic) [(+/-)-syn-6,7-Bis(4-chlorophenyl)-12-methyl-7,12-dihydro-6Hchromeno[4,3-d][1,2,4]triazolo[1,5-a]pyrimidine]: the IC50 was 9.37 µM.
The same measure, in the same setting: under `CN1C2=C(C(c3ccc(Cl)cc3)Oc3ccccc32)C(c2ccc(Br)cc2)n2ncnc21` (racemic) [(+/-)-syn-7-(4-Bromophenyl)-6-(4-chlorophenyl)-12-methyl-7,12-dihydro-6H-chromeno[4,3-d][1,2,4]triazolo[1,5-a]pyrimidine] stands 15 µM; under `Cc1ccc2c(c1)C1=C(C(c3ccc(Br)cc3)O2)C(c2ccc(Br)cc2)n2ncnc2N1C` (configuration not stated), 3 µM; under `CN1C2=C(C(c3ccc(Br)cc3)Oc3ccc(F)cc32)C(c2ccc(Br)cc2)n2ncnc21` (racemic) [(+/-)-syn-6,7-Bis(4-bromophenyl)-2-fluoro-12-methyl-7,12-dihydro-6H-chromeno[4,3-d][1,2,4]triazolo[1,5-a]pyrimidine], 44.3 µM.
As for `CCOc1cccc2c1C1=C(C(c3ccc(Br)cc3)O2)C(c2ccc(Br)cc2)n2ncnc2N1C` (racemic) [(+/-)-syn-6,7-Bis(4-bromophenyl)-1-ethoxy-12-methyl-7,12-dihydro-6H-chromeno[4,3-d][1,2,4]triazolo[1,5-a]pyrimidine], the IC50 was 6.5 µM.

A further assay addresses Cellular tumor antigen p53 (Homo sapiens, UniProt P04637). In words: Induction of p53-Ser15 phosphorylation in human HCT116 cells after 24 hrs.
`Cc1ccc2c(c1)C1=C(C(c3ccc(Br)cc3)O2)C(c2ccc(Br)cc2)n2ncnc2N1C` (configuration not stated) returned a 50% inhibitory concentration (IC50) of 1 µM.

The values above are taken from BindingDB's records for doi:10.1021/jm900681h (Amgen, 2009).
